US20240067657A1, “AMIDO-SUBSTITUTED PYRIDYL COMPOUNDS AND METHODS OF USE THEREOF FOR THE TREATMENT OF HERPESVIRUSES” (Merck Sharp & Dohme LLC, priority 2020, published 2024)
Like-named read-outs stand apart in the source and are kept apart here.

Legend:
[1] = target: T1, Human cytomegalovirus DNA polymerase (Human cytomegalovirus, UniProt P08546); assay: HCMV polymerase assay (AlphaLISA, IC50); assay type: biochemical; details: polymerase assay of Example 190
T1 construct: made in house; host or cells: SF21 insect cells (baculovirus vector)
How it was run: (§1)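 Baculovirus-expressed polymerase (HCMV 0.2 nM, VZV 0.4 nM final) preincubated 30 min at room temperature with compound in pH 7.5 HEPES buffer; reaction started with 1.6 nM DIG-primer/template and nM dNTPs including biotin-dUTP, run 60 min at 37° C. Incorporation detected by AlphaLISA; IC50 from 4-parameter fit.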

[2] = target: T2, varicella zoster virus DNA polymerase (Varicella-zoster virus, UniProt P09252); assay: VZV polymerase assay (AlphaLISA, IC50); assay type: biochemical; details: polymerase assay of Example 190
T2 construct: made in house; host or cells: SF21 insect cells (baculovirus vector)
How it was run: as §1

[3] = test system: HCMV Strain AD169 in MRC-5 cells; assay: Viral qPCR assay HCMV (V0/V1, V2/V3), EC50; assay type: cell-based; details: Human betaherpesvirus 5, AD169, MRC5, viral qPCR assay of Example 191; read-out: HCMV Cell (EC50)
How it was run: (§2)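 Infected cells added to compounds (10-point 3-fold series), ~72 h at 37 °C, then lysed; viral genomes by TaqMan qPCR against plasmid standard, normalized to PPIA in V0/V1 only, EC50 from 4-parameter fit. HCMV AD169, 0.05-0.1 pfu/cell, ± 50% FBS; VZV 0.04-0.1 pfu/cell; HSV-1 F 0.0005-0.004 pfu/cell.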

[4] = test system: VZV in MeWo or MRC5 cells; assay: Viral qPCR assay VZV (V0/V1, V2/V3), EC50; assay type: cell-based; details: 10%
How it was run: as §2

[5] = test system: HSV-1 Strain F in Vero or MRC5 cells; assay: Viral qPCR assay HSV-1 (V0/V1, V2/V3), EC50; assay type: cell-based; details: 10%
How it was run: as §2

[6] = Human alphaherpesvirus 3, MRC5, MRC5 cells, read-out: VZV Cell (EC50) MRC5 10%
[7] = Human alphaherpesvirus 1, MRC5, MRC5 cells, read-out: HSV1 Cell (EC50) MRC5 10%

T1 sequence (P08546 whole entry): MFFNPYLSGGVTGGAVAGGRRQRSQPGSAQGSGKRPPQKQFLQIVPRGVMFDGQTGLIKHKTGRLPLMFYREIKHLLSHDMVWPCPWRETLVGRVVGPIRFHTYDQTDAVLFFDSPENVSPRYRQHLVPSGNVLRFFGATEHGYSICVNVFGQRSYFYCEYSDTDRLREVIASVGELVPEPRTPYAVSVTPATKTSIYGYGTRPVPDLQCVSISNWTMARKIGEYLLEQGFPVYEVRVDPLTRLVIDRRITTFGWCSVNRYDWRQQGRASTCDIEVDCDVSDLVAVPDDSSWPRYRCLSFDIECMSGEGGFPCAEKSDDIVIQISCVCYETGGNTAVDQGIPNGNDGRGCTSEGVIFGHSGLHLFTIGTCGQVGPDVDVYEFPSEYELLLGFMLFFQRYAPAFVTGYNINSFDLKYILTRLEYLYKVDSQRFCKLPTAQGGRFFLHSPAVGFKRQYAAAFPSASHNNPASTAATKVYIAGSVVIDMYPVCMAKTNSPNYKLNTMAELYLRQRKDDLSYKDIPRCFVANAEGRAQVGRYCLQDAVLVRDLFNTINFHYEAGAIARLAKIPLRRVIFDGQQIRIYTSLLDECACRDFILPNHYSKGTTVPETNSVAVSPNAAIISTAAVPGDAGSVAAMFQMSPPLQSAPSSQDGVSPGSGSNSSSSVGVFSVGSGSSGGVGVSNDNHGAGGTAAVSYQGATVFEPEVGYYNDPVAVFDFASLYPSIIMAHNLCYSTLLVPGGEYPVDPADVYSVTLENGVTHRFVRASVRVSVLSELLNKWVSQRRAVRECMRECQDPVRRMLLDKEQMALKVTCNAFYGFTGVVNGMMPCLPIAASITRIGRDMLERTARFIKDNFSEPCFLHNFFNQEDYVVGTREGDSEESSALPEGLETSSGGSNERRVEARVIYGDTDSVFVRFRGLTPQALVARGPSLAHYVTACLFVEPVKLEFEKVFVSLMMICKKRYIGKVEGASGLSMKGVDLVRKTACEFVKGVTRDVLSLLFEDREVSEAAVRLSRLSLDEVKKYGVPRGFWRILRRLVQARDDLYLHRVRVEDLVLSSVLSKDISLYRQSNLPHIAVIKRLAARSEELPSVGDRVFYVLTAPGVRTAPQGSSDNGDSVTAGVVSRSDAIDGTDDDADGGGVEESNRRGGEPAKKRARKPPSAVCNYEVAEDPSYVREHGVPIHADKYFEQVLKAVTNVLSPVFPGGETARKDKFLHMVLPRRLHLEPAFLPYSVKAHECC
T2 sequence (P09252 whole entry): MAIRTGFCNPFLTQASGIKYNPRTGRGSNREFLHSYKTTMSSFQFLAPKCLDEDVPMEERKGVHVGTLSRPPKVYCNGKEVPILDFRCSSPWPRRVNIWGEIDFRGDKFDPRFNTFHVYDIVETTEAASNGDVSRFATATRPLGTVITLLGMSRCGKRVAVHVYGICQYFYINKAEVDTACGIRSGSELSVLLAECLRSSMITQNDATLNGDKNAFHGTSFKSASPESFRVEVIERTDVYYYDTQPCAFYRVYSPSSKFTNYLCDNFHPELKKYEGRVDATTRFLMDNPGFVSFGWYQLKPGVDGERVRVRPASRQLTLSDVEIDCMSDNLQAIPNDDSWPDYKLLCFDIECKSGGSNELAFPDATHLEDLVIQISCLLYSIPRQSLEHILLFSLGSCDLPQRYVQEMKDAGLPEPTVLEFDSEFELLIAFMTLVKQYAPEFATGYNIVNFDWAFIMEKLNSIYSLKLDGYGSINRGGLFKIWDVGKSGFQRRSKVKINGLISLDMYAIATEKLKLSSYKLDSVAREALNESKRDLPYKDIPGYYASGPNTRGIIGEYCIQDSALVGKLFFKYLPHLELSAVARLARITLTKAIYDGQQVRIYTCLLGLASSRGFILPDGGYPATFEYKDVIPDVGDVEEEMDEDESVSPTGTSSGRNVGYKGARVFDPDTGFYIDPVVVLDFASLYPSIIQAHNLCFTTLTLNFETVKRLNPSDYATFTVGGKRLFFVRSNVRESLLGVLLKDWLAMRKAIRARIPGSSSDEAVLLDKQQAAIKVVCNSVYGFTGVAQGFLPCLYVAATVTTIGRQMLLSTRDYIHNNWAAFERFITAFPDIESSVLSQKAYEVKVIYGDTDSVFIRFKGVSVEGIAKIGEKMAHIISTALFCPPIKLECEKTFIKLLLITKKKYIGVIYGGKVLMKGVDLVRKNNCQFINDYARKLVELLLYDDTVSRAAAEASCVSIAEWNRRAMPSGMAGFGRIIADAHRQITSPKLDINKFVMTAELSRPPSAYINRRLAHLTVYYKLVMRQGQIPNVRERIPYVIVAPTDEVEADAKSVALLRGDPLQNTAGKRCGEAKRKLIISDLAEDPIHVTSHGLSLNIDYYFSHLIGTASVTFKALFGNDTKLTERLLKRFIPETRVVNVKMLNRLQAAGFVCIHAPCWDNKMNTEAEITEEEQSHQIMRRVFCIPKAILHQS

| SMILES | IC50 [1] [nM] | IC50 [2] [nM] | EC50 [3] [nM] | EC50 [4, 6] [nM] | EC50 [5, 7] [nM] | EC50 ([4]; Human alphaherpesvirus 3, MeWo, MEWO cells, read-out: VZV Cell (EC50) MEWO 10%) [nM] | EC50 ([5]; Human alphaherpesvirus 1, Vero, VERO cells, read-out: HSV1 Cell (EC50) VERO 10%) [nM] |
| --- | --- | --- | --- | --- | --- | --- | --- |
| CC(=O)N1CCC(Oc2cc(C(=O)NCc3ccc(Cl)cc3)ncc2-c2cnc(C3CC3)o2)CC1 [Compound 67] | 50.7 | 21.7 | 612 | 706 | 660 |  |  |
| Cn1cc(-c2cnc(C(=O)NCc3ccc(Cl)cc3)cc2O[C@H]2CCN3C(=O)CC[C@H]3C2)cn1 (racemic) [Compound 170] | 178 | 87.4 | 736 |  |  | 599 | 266 |
| C[C@@H]1CN(C)CCN1c1cc(C(=O)NCc2ccc(Cl)cc2)ncc1C#N [Compound 175] | 48.2 | 76.9 | 1220 | 3320 | 3390 |  |  |
| CC(=O)N1CCC(Oc2cc(C(=O)NCc3ccc(Cl)cc3)ncc2-c2nnc(C3CC3)s2)CC1 [Compound 57] | 86.9 | 12.7 | 133 | 203 | 110 |  |  |

The next compounds have a lower IC50 [1] than those just listed; values first:

| IC50 [1] [nM] | IC50 [2] [nM] | SMILES | EC50 [3] [nM] | EC50 [4, 6] [nM] | EC50 [5, 7] [nM] | EC50 ([4]; Human alphaherpesvirus 3, MeWo, MEWO cells, read-out: VZV Cell (EC50) MEWO 10%) [nM] | EC50 ([5]; Human alphaherpesvirus 1, Vero, VERO cells, read-out: HSV1 Cell (EC50) VERO 10%) [nM] |
| --- | --- | --- | --- | --- | --- | --- | --- |
| 36.7 | 11.4 | O=C(NCc1ccc(Cl)cc1)c1cc(O[C@H]2CCN3C(=O)OC[C@@H]3C2)c(C2CC2O)cn1 (some centres unmarked) [Compound 154] | 255 | 896 | 662 |  |  |
| 28.6 | 8.55 | CC(=O)N1CCC(Oc2cc(C(=O)NCc3ccc(Cl)cc3)ncc2-c2cnn(C(F)F)c2)CC1C (centres unmarked) [Compound 167] | 198 | 679 | 423 |  |  |
| 19.2 | 9.04 | O=C(NCc1ccc(Cl)cc1)c1cc(O[C@H]2CCN3C(=O)OC[C@@H]3C2)c(N2CC(O)C2)cn1 [Compound 122] | 121 | 582 | 520 |  |  |
